Tested on: p-IKKa levels in L363 (NIK translocated multiple myeloma) cells
Assay: Assay 2: Effect of compounds on p-IKKa levels in L363 (NIK translocated multiple myeloma) cells
Type: cell-based
Conditions: Homo sapiens, L-363, 6 h, read-out: Assay 2 IC50 (nM), p-IKKa (Ser 176/180) in BAFF stimulated L363 cells with MG132, 6 h; average if tested more than once
Summary of the method: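 Read-out is p-IKKa Ser176/180 by AlphaLISA SureFire in lysates. Cells were BAFF-primed (250 ng/ml) overnight or left unstimulated, then exposed 6 h at 37 °C to compound with MG132 (10 μM), 0.3% DMSO. IC50 from sigmoidal curve fit, normalized between stimulated and unstimulated controls.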

SMILES	IC50 [nM]
Cc1oncc1Nc1nccc(-c2cccc(-c3cc([C@]4(O)CCN(C)C4=O)on3)n2)n1 [Example 63, (R)-3-Hydroxy-1-methyl-3-(3-(6-(2-((5-methylisoxazol-4-yl)amino)pyrimidin-4-yl)pyridin-2-yl)isoxazol-5-yl)pyrrolidin-2-one]	< 50
CO[C@@H]1CCOC[C@H]1Nc1nccc(-c2cccc(-c3cc([C@]4(O)CCN(C)C4=O)on3)n2)n1 [Example 338, (R)-3-Hydroxy-3-(3-(6-(2-(((trans)-4-methoxytetrahydro-2H-pyran-3-yl)amino)pyrimidin-4-yl)pyridin-2-yl)isoxazol-5-yl)-1-methylpyrrolidin-2-one]	> 500
Cc1cccc(Nc2nccc(-c3cccc(-c4cc([C@]5(O)CCN(C)C5=O)on4)n3)n2)n1 [Example 244, (R)-3-Hydroxy-1-methyl-3-(3-(6-(2-((6-methylpyridin-2-yl)amino)pyrimidin-4-yl)pyridin-2-yl)isoxazol-5-yl)pyrrolidin-2-one]	50 to 500
CN1C(=O)[C@](O)(c2cc(-c3cccc(-c4ccnc(Nc5cnn(C)c5Cl)n4)n3)no2)[C@H]2C[C@H]21 [Example 287, (1R,4R,5S)-4-(3-(6-(2-((5-Chloro-1-methyl-1H-pyrazol-4-yl)amino)pyrimidin-4-yl)pyridin-2-yl)isoxazol-5-yl)-4-hydroxy-2-methyl-2-azabicyclo[3.1.0]hexan-3-one]	50 to 500
Cc1ncccc1Nc1nccc(-c2cccc(-c3cc([C@]4(O)CCN(C)C4=O)on3)c2)n1 [Example 24, (R)-3-Hydroxy-1-methyl-3-(3-(3-(2-((2-methylpyridin-3-yl)amino)pyrimidin-4-yl)phenyl)isoxazol-5-yl)pyrrolidin-2-one]	50 to 500
C[C@H](Nc1nccc(-c2cccc(-n3cc([C@]4(O)CCN(C)C4=O)nn3)n2)n1)c1ncccn1 (single isomer, unassigned) [Example 143]	50 to 500
CN1CC[C@@](O)(c2cnn(-c3cccc(-c4ccnc(Nc5cnn(C)c5Cl)n4)n3)c2)C1=O (single isomer, unassigned) [Example 411, (*R)-3-(1-(6-(2-((5-Chloro-1-methyl-1H-pyrazol-4-yl)amino)pyrimidin-4-yl)pyridin-2-yl)-1H-pyrazol-4-yl)-3-hydroxy-1-methylpyrrolidin-2-one]	50 to 500
CN1CC[C@@](O)(c2cc(-c3cccc(-c4ccnc(Nc5ccn(C)n5)n4)c3)no2)C1=O [Example 25, (R)-3-Hydroxy-1-methyl-3-(3-(3-(2-((1-methyl-1H-pyrazol-3-yl)amino)pyrimidin-4-yl)phenyl)isoxazol-5-yl)pyrrolidin-2-one]	50 to 500
CC1CC(Nc2nccc(-c3cccc(-c4cc([C@]5(O)CCN(C)C5=O)on4)n3)n2)CO1 (mixture of isomers) [Example 343, (R)-3-Hydroxy-1-methyl-3-(3-(6-(2-(((rac)-5-methyltetrahydrofuran-3-yl)amino)pyrimidin-4-yl)pyridin-2-yl)isoxazol-5-yl)pyrrolidin-2-one]	50 to 500
CN1CC[C@@](O)(c2cc(-c3cccc(-c4ccnc(Nc5nnn(C)n5)n4)n3)no2)C1=O [Example 267, (R)-3-Hydroxy-1-methyl-3-(3-(6-(2-((2-methyl-2H-tetrazol-5-yl)amino)pyrimidin-4-yl)pyridin-2-yl)isoxazol-5-yl)pyrrolidin-2-one]	50 to 500
C[C@H](Nc1nccc(-c2cccc(-c3cc([C@]4(O)CCN(C)C4=O)on3)n2)n1)C(=O)N1CCC1 [Example 168, (R)-3-(3-(6-(2-(((S)-1-(Azetidin-1-yl)-1-oxopropan-2-yl)amino)pyrimidin-4-yl)pyridin-2-yl)isoxazol-5-yl)-3-hydroxy-1-methylpyrrolidin-2-one]	50 to 500
C[C@@H]1Cn2nc(Nc3nccc(-c4cccc(-c5cc([C@]6(O)CCN(C)C6=O)on5)n4)n3)cc2CO1 (single isomer, unassigned) [Example 114, (R)-3-Hydroxy-1-methyl-3-(3-(6-(2-(((*R)-6-methyl-6,7-dihydro-4H-pyrazolo[5,1-c][1,4]oxazin-2-yl)amino)pyrimidin-4-yl)pyridin-2-yl)isoxazol-5-yl)pyrrolidin-2-one]	< 50
C[C@@H](Nc1nccc(-c2cccc(-c3cc([C@]4(O)CCN(C)C4=O)on3)n2)n1)C(=O)N(C)C [Example 175, (R)-2-((4-(6-(5-((R)-3-Hydroxy-1-methyl-2-oxopyrrolidin-3-yl)isoxazol-3-yl)pyridin-2-yl)pyrimidin-2-yl)amino)-N,N-dimethylpropanamide]	> 500
CN1CC[C@@](O)(c2cc(-c3cccc(-c4ccnc(NC5CCN(S(C)(=O)=O)CC5)n4)n3)no2)C1=O [Example 476, (R)-3-Hydroxy-1-methyl-3-(3-(6-(2-((1-(methylsulfonyl)piperidin-4-yl)amino)pyrimidin-4-yl)pyridin-2-yl)isoxazol-5-yl)pyrrolidin-2-one]	50 to 500
CCn1ncnc1Nc1nccc(-c2cccc(-c3cc([C@]4(O)CCN(C)C4=O)on3)n2)n1 [Example 276, (R)-3-(3-(6-(2-((1-Ethyl-1H-1,2,4-triazol-5-yl)amino)pyrimidin-4-yl)pyridin-2-yl)isoxazol-5-yl)-3-hydroxy-1-methylpyrrolidin-2-one]	> 500
Cc1cc(Nc2nccc(-c3cccc(-c4cc([C@]5(O)CCN(C)C5=O)on4)n3)n2)c(F)cn1 [Example 293, (R)-3-(3-(6-(2-((5-Fluoro-2-methylpyridin-4-yl)amino)pyrimidin-4-yl)pyridin-2-yl)isoxazol-5-yl)-3-hydroxy-1-methylpyrrolidin-2-one]	< 50
C[C@H](Nc1nccc(-c2cccc(-c3cc([C@]4(O)CCN(C)C4=O)on3)n2)n1)C(=O)N1CCC(F)(F)C1 [Example 174, (R)-3-(3-(6-(2-(((S)-1-(3,3-Difluoropyrrolidin-1-yl)-1-oxopropan-2-yl)amino)pyrimidin-4-yl)pyridin-2-yl)isoxazol-5-yl)-3-hydroxy-1-methylpyrrolidin-2-one]	50 to 500
CN1CC[C@@](O)(c2cc(-c3cccc(-c4ccnc(Nc5ccn(C)n5)n4)n3)no2)C1=O [Example 47, (R)-3-Hydroxy-1-methyl-3-(3-(6-(2-((1-methyl-1H-pyrazol-3-yl)amino)pyrimidin-4-yl)pyridin-2-yl)isoxazol-5-yl)pyrrolidin-2-one]	< 50
CN(C)CCn1nccc1Nc1nccc(-c2cccc(-c3cc([C@]4(O)CCN(C)C4=O)on3)n2)n1 [Example 306, (R)-3-(3-(6-(2-((1-(2-(Dimethylamino)ethyl)-1H-pyrazol-5-yl)amino)pyrimidin-4-yl)pyridin-2-yl)isoxazol-5-yl)-3-hydroxy-1-methylpyrrolidin-2-one]	> 500
CN1CC[C@@](O)(c2cc(-c3cccc(-c4ccnc(Nc5cnn(CC(C)(C)O)c5)n4)n3)no2)C1=O [Example 64, (R)-3-Hydroxy-3-(3-(6-(2-((1-(2-hydroxy-2-methylpropyl)-1H-pyrazol-4-yl)amino)pyrimidin-4-yl)pyridin-2-yl)isoxazol-5-yl)-1-methylpyrrolidin-2-one]	< 50
CN1CC(F)(F)[C@@](O)(c2cn(-c3cccc(-c4ccnc(Nc5cnn(C)c5Cl)n4)n3)nn2)C1=O [Example 109, (R)-3-(1-(6-(2-((5-Chloro-1-methyl-1H-pyrazol-4-yl)amino)pyrimidin-4-yl)pyridin-2-yl)-1H-1,2,3-triazol-4-yl)-4,4-difluoro-3-hydroxy-1-methylpyrrolidin-2-one]	< 50

Source: patent US20250282768A1 (Janssen Pharmaceutica NV, priority 2022, published 2025)
